Patent US12544463B2, “Deuterium substituted positron emission tomography (PET) imaging agents and their pharmacological application” (Five Eleven Pharma Inc., priority 2017, dated 2026)
“And” between values parts separate entries of the source, which are not always exact repeats. Equal entries are not always repeated.

Assays:
[1] = Biodistribution in rats: ^18F-FP-(+)DTBZ vs ^18F-FP-DTBZ-D6; type: in vivo, rat; conditions: for Biodistribution Blood / Biodistribution Bone / Biodistribution Brain / Biodistribution Heart / Biodistribution Kidney / Biodistribution Liver / Biodistribution Lung / Biodistribution Muscle / Biodistribution Pancreas / Biodistribution Skin / Biodistribution Spleen: IV
Experimental: (§1) Three rats per group were used for each biodistribution study. While under isoflurane anesthesia, 0.2 mL of a saline solution containing 20 μCi of radioactive tracer was injected into the femoral vein. The rats were sacrificed at the time indicated by cardiac excision while under isoflurane anesthesia. Organs of interest were removed and weighed, and the radioactivity was counted. The percent dose per organ was calculated by comparing the tissue counts to counts of 1% of the initial dose (100 times diluted aliquots of the injected material) measured at the same time. Regional brain distribution in rats was measured after an iv injection of the radioactive tracer. Samples from different brain regions (cortex, striatum, hippocampus, cerebellum and hypothalamus) were dissected, weighed and counted. The percentage dose/g of each sample was calculated by comparing sample counts with the counts of the diluted initial dose described above. The ratio was calculated by dividing the percentage dose/g of each region by that of the cerebellum. The cerebellum was used as the reference region for calculating the ratio of target to non-target binding, because only a trace amount of VMAT2 binding site is present in the cerebellum.

VMAT2 = molecular target: T1, VMAT2 (Rattus norvegicus, UniProt Q01827); assay: Regional brain distribution and ratio vs cerebellum in rats (VMAT2 tracers); type: in vivo; conditions: IV
T1 construct: from tissue; host or cells: live rats (normal male CD rats), dissected brain regions
Experimental: as §1

[2] = 60 min, listed as 18F-FP-DTBZ-D6 (^18F-Ia)
[3] = 120 min, listed as 18F-FP-DTBZ-D6 (^18F-Ia)

T1 sequence (Q01827 whole entry): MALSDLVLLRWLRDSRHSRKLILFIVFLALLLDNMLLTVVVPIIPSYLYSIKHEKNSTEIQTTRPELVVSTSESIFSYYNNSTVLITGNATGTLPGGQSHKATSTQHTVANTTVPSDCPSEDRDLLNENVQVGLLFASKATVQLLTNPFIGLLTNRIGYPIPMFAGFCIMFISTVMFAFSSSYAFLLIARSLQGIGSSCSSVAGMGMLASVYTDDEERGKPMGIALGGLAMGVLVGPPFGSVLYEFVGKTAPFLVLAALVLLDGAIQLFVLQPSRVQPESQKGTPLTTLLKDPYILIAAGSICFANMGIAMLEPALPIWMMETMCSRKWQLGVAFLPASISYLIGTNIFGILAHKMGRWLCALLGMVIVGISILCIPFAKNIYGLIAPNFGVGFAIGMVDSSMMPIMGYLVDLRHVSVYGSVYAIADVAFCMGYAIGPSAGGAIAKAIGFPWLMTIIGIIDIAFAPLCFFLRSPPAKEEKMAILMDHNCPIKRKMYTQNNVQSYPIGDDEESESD

COc1cc2c(cc1OCCC[18F])CCN1C[C@@H](CC(C)C)[C@H](O)C[C@H]21 [^18F-FP-(+)DTBZ, reference compound]
Biodistribution Blood ([1]; 2 min): 0.24 ± 0.03 % dose/g | Biodistribution Bone ([1]; 2 min): 0.45 ± 0.03 % dose/g | Biodistribution Brain ([1]; 2 min): 0.83 ± 0.06 % dose/g | Biodistribution Heart ([1]; 2 min): 0.96 ± 0.08 % dose/g | Biodistribution Kidney ([1]; 2 min): 2.66 ± 0.15 % dose/g | Biodistribution Liver ([1]; 2 min): 2.28 ± 0.04 % dose/g | Biodistribution Lung ([1]; 2 min): 1.03 ± 0.03 % dose/g | Biodistribution Muscle ([1]; 2 min): 0.11 ± 0.02 % dose/g | Biodistribution Pancreas ([1]; 2 min): 2.29 ± 0.36 % dose/g | Biodistribution Skin ([1]; 2 min): 0.19 ± 0.03 % dose/g | Biodistribution Spleen ([1]; 2 min): 1.19 ± 0.10 % dose/g | Biodistribution Blood ([1]; 60 min): 0.12 ± 0.00 % dose/g | Biodistribution Bone ([1]; 60 min): 1.13 ± 0.07 % dose/g | Biodistribution Brain ([1]; 60 min): 0.35 ± 0.03 % dose/g | Biodistribution Heart ([1]; 60 min): 0.22 ± 0.03 % dose/g | Biodistribution Kidney ([1]; 60 min): 0.63 ± 0.05 % dose/g | Biodistribution Liver ([1]; 60 min): 2.59 ± 0.21 % dose/g | Biodistribution Lung ([1]; 60 min): 0.41 ± 0.03 % dose/g | Biodistribution Muscle ([1]; 60 min): 0.10 ± 0.01 % dose/g | Biodistribution Pancreas ([1]; 60 min): 4.48 ± 0.27 % dose/g | Biodistribution Skin ([1]; 60 min): 0.24 ± 0.03 % dose/g | Biodistribution Spleen ([1]; 60 min): 0.50 ± 0.04 % dose/g | Biodistribution Blood ([1]; 120 min): 0.07 ± 0.01 % dose/g | Biodistribution Bone ([1]; 120 min): 1.86 % dose/g and 1.86 ± 0.24 % dose/g | Biodistribution Brain ([1]; 120 min): 0.26 % dose/g and 0.26 ± 0.03 % dose/g | Biodistribution Heart ([1]; 120 min): 0.16 ± 0.01 % dose/g | Biodistribution Kidney ([1]; 120 min): 0.45 ± 0.02 % dose/g | Biodistribution Liver ([1]; 120 min): 2.12 ± 0.20 % dose/g | Biodistribution Lung ([1]; 120 min): 0.31 ± 0.02 % dose/g | Biodistribution Muscle ([1]; 120 min): 0.07 ± 0.00 % dose/g | Biodistribution Pancreas ([1]; 120 min): 3.56 ± 0.42 % dose/g | Biodistribution Skin ([1]; 120 min): 0.17 ± 0.01 % dose/g | Biodistribution Spleen ([1]; 120 min): 0.37 ± 0.05 % dose/g | Ratio vs. Cerebellum: Cerebellum (VMAT2; 2 min): 1.00 ± 0.00 | Ratio vs. Cerebellum: Cortex (VMAT2; 2 min): 1.21 ± 0.04 | Ratio vs. Cerebellum: Hippocampus (VMAT2; 2 min): 1.19 ± 0.03 | Ratio vs. Cerebellum: Hypothalamus (VMAT2; 2 min): 1.57 ± 0.04 | Ratio vs. Cerebellum: Remainder (VMAT2; 2 min): 1.23 ± 0.03 | Ratio vs. Cerebellum: Striatum (VMAT2; 2 min): 1.66 ± 0.15 | Regional Brain Distribution Cerebellum (VMAT2; 2 min): 0.68 ± 0.06 % dose/gram | Regional Brain Distribution Cortex (VMAT2; 2 min): 0.82 ± 0.07 % dose/gram | Regional Brain Distribution Hippocampus (VMAT2; 2 min): 0.80 ± 0.07 % dose/gram | Regional Brain Distribution Hypothalamus (VMAT2; 2 min): 1.06 ± 0.10 % dose/gram | Regional Brain Distribution Remainder (VMAT2; 2 min): 0.83 ± 0.06 % dose/gram | Regional Brain Distribution Striatum (VMAT2; 2 min): 1.12 ± 0.04 % dose/gram | Ratio vs. Cerebellum: Cerebellum (VMAT2; 60 min): 1.00 ± 0.00 | Ratio vs. Cerebellum: Cortex (VMAT2; 60 min): 1.13 ± 0.09 | Ratio vs. Cerebellum: Hippocampus (VMAT2; 60 min): 1.64 ± 0.19 | Ratio vs. Cerebellum: Hypothalamus (VMAT2; 60 min): 3.91 ± 0.37 | Ratio vs. Cerebellum: Remainder (VMAT2; 60 min): 1.68 ± 0.07 | Ratio vs. Cerebellum: Striatum (VMAT2; 60 min): 5.66 and 5.66 ± 0.72 | Regional Brain Distribution Cerebellum (VMAT2; 60 min): 0.19 ± 0.02 % dose/gram | Regional Brain Distribution Cortex (VMAT2; 60 min): 0.21 ± 0.01 % dose/gram | Regional Brain Distribution Hippocampus (VMAT2; 60 min): 0.30 ± 0.01 % dose/gram | Regional Brain Distribution Hypothalamus (VMAT2; 60 min): 0.73 ± 0.11 % dose/gram | Regional Brain Distribution Remainder (VMAT2; 60 min): 0.31 ± 0.02 % dose/gram | Regional Brain Distribution Striatum (VMAT2; 60 min): 1.04 ± 0.05 % dose/gram | Ratio vs. Cerebellum: Cerebellum (VMAT2; 120 min): 1.00 ± 0.00 | Ratio vs. Cerebellum: Cortex (VMAT2; 120 min): 1.11 ± 0.09 | Ratio vs. Cerebellum: Hippocampus (VMAT2; 120 min): 1.79 ± 0.12 | Ratio vs. Cerebellum: Hypothalamus (VMAT2; 120 min): 4.04 ± 0.66 | Ratio vs. Cerebellum: Remainder (VMAT2; 120 min): 1.59 ± 0.09 | Ratio vs. Cerebellum: Striatum (VMAT2; 120 min): 6.54 ± 0.59 | Regional Brain Distribution Cerebellum (VMAT2; 120 min): 0.13 ± 0.01 % dose/gram | Regional Brain Distribution Cortex (VMAT2; 120 min): 0.15 ± 0.02 % dose/gram | Regional Brain Distribution Hippocampus (VMAT2; 120 min): 0.24 ± 0.03 % dose/gram | Regional Brain Distribution Hypothalamus (VMAT2; 120 min): 0.54 ± 0.11 % dose/gram | Regional Brain Distribution Remainder (VMAT2; 120 min): 0.21 ± 0.02 % dose/gram | Regional Brain Distribution Striatum (VMAT2; 120 min): 0.87 ± 0.12 % dose/gram

[2H]C([2H])([18F])C([2H])([2H])C([2H])([2H])Oc1cc2c(cc1OC)[C@H]1C[C@@H](O)[C@H](CC(C)C)CN1CC2 [^18F-FP-(+)DTBZ-D6 (^18F-Ia)]
increase in total brain uptake vs ^18F-FP-(+)DTBZ ([1]; 120 min after iv injection): 40% | Biodistribution Blood ([1]; 2 min): 0.23 ± 0.03 % dose/g | Biodistribution Bone ([1]; 2 min): 0.33 ± 0.04 % dose/g | Biodistribution Brain ([1]; 2 min): 0.64 ± 0.07 % dose/g | Biodistribution Heart ([1]; 2 min): 0.69 ± 0.12 % dose/g | Biodistribution Kidney ([1]; 2 min): 1.89 ± 0.07 % dose/g | Biodistribution Liver ([1]; 2 min): 2.79 ± 0.12 % dose/g | Biodistribution Lung ([1]; 2 min): 0.87 ± 0.05 % dose/g | Biodistribution Muscle ([1]; 2 min): 0.17 ± 0.02 % dose/g | Biodistribution Pancreas ([1]; 2 min): 2.62 ± 0.15 % dose/g | Biodistribution Skin ([1]; 2 min): 0.24 ± 0.02 % dose/g | Biodistribution Spleen ([1]; 2 min): 1.04 ± 0.10 % dose/g | Biodistribution Blood ([1]; 60 min): 0.11 ± 0.01 % dose/g | Biodistribution Bone ([1]; 60 min): 0.47 ± 0.02 % dose/g | Biodistribution Brain ([1]; 60 min): 0.44 ± 0.02 % dose/g | Biodistribution Heart ([1]; 60 min): 0.26 ± 0.01 % dose/g | Biodistribution Kidney ([1]; 60 min): 0.66 ± 0.04 % dose/g | Biodistribution Liver ([1]; 60 min): 3.19 ± 0.46 % dose/g | Biodistribution Lung ([1]; 60 min): 0.49 ± 0.00 % dose/g | Biodistribution Muscle ([1]; 60 min): 0.11 ± 0.00 % dose/g | Biodistribution Pancreas ([1]; 60 min): 5.01 ± 0.69 % dose/g | Biodistribution Skin ([1]; 60 min): 0.25 ± 0.01 % dose/g | Biodistribution Spleen ([1]; 60 min): 0.66 ± 0.03 % dose/g | Biodistribution Bone [1, 2]: 0.47 % dose/g | Biodistribution Blood ([1]; 120 min): 0.10 ± 0.00 % dose/g | Biodistribution Bone ([1]; 120 min): 0.65 ± 0.03 % dose/g | Biodistribution Brain ([1]; 120 min): 0.34 ± 0.02 % dose/g | Biodistribution Heart ([1]; 120 min): 0.21 ± 0.01 % dose/g | Biodistribution Kidney ([1]; 120 min): 0.59 ± 0.02 % dose/g | Biodistribution Liver ([1]; 120 min): 3.10 ± 0.49 % dose/g | Biodistribution Lung ([1]; 120 min): 0.41 ± 0.01 % dose/g | Biodistribution Muscle ([1]; 120 min): 0.09 ± 0.01 % dose/g | Biodistribution Pancreas ([1]; 120 min): 4.49 ± 0.17 % dose/g | Biodistribution Skin ([1]; 120 min): 0.21 ± 0.01 % dose/g | Biodistribution Spleen ([1]; 120 min): 0.51 ± 0.03 % dose/g | Biodistribution Bone [1, 3]: 0.65 % dose/g | Biodistribution Brain [1, 3]: 0.34 % dose/g | Ratio vs. Cerebellum: Cerebellum (VMAT2; 2 min): 1.00 ± 0.00 | Ratio vs. Cerebellum: Cortex (VMAT2; 2 min): 1.36 ± 0.05 | Ratio vs. Cerebellum: Hippocampus (VMAT2; 2 min): 1.26 ± 0.04 | Ratio vs. Cerebellum: Hypothalamus (VMAT2; 2 min): 1.71 ± 0.10 | Ratio vs. Cerebellum: Remainder (VMAT2; 2 min): 1.33 ± 0.03 | Ratio vs. Cerebellum: Striatum (VMAT2; 2 min): 2.08 ± 0.30 | Regional Brain Distribution Cerebellum (VMAT2; 2 min): 0.48 ± 0.04 % dose/gram | Regional Brain Distribution Cortex (VMAT2; 2 min): 0.65 ± 0.07 % dose/gram | Regional Brain Distribution Hippocampus (VMAT2; 2 min): 0.60 ± 0.07 % dose/gram | Regional Brain Distribution Hypothalamus (VMAT2; 2 min): 0.82 ± 0.10 % dose/gram | Regional Brain Distribution Remainder (VMAT2; 2 min): 0.64 ± 0.07 % dose/gram | Regional Brain Distribution Striatum (VMAT2; 2 min): 1.00 ± 0.22 % dose/gram | Ratio vs. Cerebellum: Cerebellum (VMAT2; 60 min): 1.00 ± 0.00 | Ratio vs. Cerebellum: Cortex (VMAT2; 60 min): 1.13 ± 0.02 | Ratio vs. Cerebellum: Hippocampus (VMAT2; 60 min): 1.68 ± 0.12 | Ratio vs. Cerebellum: Hypothalamus (VMAT2; 60 min): 3.93 ± 0.15 | Ratio vs. Cerebellum: Remainder (VMAT2; 60 min): 1.59 ± 0.04 | Ratio vs. Cerebellum: Striatum (VMAT2; 60 min): 6.05 ± 0.43 | Regional Brain Distribution Cerebellum (VMAT2; 60 min): 0.23 ± 0.01 % dose/gram | Regional Brain Distribution Cortex (VMAT2; 60 min): 0.26 ± 0.01 % dose/gram | Regional Brain Distribution Hippocampus (VMAT2; 60 min): 0.39 ± 0.01 % dose/gram | Regional Brain Distribution Hypothalamus (VMAT2; 60 min): 0.91 ± 0.03 % dose/gram | Regional Brain Distribution Remainder (VMAT2; 60 min): 0.37 ± 0.02 % dose/gram | Regional Brain Distribution Striatum (VMAT2; 60 min): 1.40 ± 0.06 % dose/gram | Ratio vs. Cerebellum: Striatum (VMAT2; [2]): 6.05 | Ratio vs. Cerebellum: Cerebellum (VMAT2; 120 min): 1.00 ± 0.00 | Ratio vs. Cerebellum: Cortex (VMAT2; 120 min): 1.10 ± 0.09 | Ratio vs. Cerebellum: Hippocampus (VMAT2; 120 min): 1.74 ± 0.32 | Ratio vs. Cerebellum: Hypothalamus (VMAT2; 120 min): 3.56 ± 0.49 | Ratio vs. Cerebellum: Remainder (VMAT2; 120 min): 1.52 ± 0.03 | Ratio vs. Cerebellum: Striatum (VMAT2; 120 min): 5.49 ± 0.43 | Regional Brain Distribution Cerebellum (VMAT2; 120 min): 0.18 ± 0.01 % dose/gram | Regional Brain Distribution Cortex (VMAT2; 120 min): 0.20 ± 0.00 % dose/gram | Regional Brain Distribution Hippocampus (VMAT2; 120 min): 0.31 ± 0.04 % dose/gram | Regional Brain Distribution Hypothalamus (VMAT2; 120 min): 0.65 ± 0.11 % dose/gram | Regional Brain Distribution Remainder (VMAT2; 120 min): 0.28 ± 0.02 % dose/gram | Regional Brain Distribution Striatum (VMAT2; 120 min): 1.00 ± 0.08 % dose/gram
